# Where a name gives a salt, the structure may show the parent alone.
# Test system: HCT116 cells
# Assay: HCT116 cytotoxic activity assay (Alamar Blue, 72 h)
# Type: cell-based
# Settings: Homo sapiens, HCT-116, 72 h compound exposure, greater than 500 nM but less than or equal to 2 μM
# Method: Representative compounds of this invention were tested for cytotoxicity using the above-described assay procedure with the following results: […]
row,Structure (SMILES),IC50
1,"Nc1nc(Nc2ccc(Oc3ccnc(C(F)(F)F)c3)cc2)cc(-c2cccc(C(F)(F)F)c2)n1 [Example 197, 6-[3-(trifluoromethyl)phenyl]-N4*-(4-{[2-(trifluoromethyl)pyridin-4-yl]oxy}phenyl)pyrimidine-2,4-diamine]",500 to 2000 nM
2,"N#Cc1cccc(-c2cc(Nc3ccc(Oc4ccnc(C(F)(F)F)c4)cc3)nc(N)n2)c1 [Example 198, 3-{2-amino-6-[(4-{[2-(trifluoromethyl)pyridin-4-yl]oxy}phenyl)amino]pyrimidin-4-yl}benzonitrile]",500 to 2000 nM
3,"COc1ccc(C(C)C)cc1-c1cc(Nc2ccc(Oc3ccnc(C(F)(F)F)c3)cc2)nc(N)n1 [Example 201, 6-(5-isopropyl-2-methoxyphenyl)-N4*-(4-{[2-(trifluoromethyl)pyridin-4-yl]oxy}phenyl)pyrimidine-2,4-diamine]",500 to 2000 nM
4,"COc1ccncc1-c1cc(Nc2ccc(Oc3ccnc(C(F)(F)F)c3)cc2)nc(N)n1 [Example 203, 6-(4-methoxypyridin-3-yl)-N4*-(4-{[2-(trifluoromethyl)pyridin-4-yl]oxy}phenyl)pyrimidine-2,4-diamine]",500 to 2000 nM
5,"CCSc1ccc(-c2cc(Nc3ccc(Oc4ccnc(C(F)(F)F)c4)cc3)nc(N)n2)cc1 [Example 207, 6-[4-(ethylthio)phenyl]-N4*-(4-{[2-(trifluoromethyl)pyridin-4-yl]oxy}phenyl)pyrimidine-2,4-diamine]",500 to 2000 nM
6,"CCCCc1ccc(-c2cc(Nc3ccc(Oc4ccnc(C#N)c4)cc3)nc(N)n2)cc1 [Example 220, 4-(4-{[2-amino-6-(4-butylphenyl)pyrimidin-4-yl]amino}phenoxy) pyridine-2-carbonitrile]",500 to 2000 nM
7,"NC(=O)c1cc(Oc2ccc(Nc3cc(-c4cccc(OCc5ccccc5)c4)nc(N)n3)cc2)ccn1 [Example 222, 4-[4-({2-amino-6-[3-(benzyloxy)phenyl]pyrimidin-4-yl}amino)phenoxy]pyridine-2-carboxamide]",500 to 2000 nM
8,N#Cc1cc(Oc2ccc(Nc3cc(-c4cccc(O)c4)nc(N)n3)cc2)ccn1 [Example 226],500 to 2000 nM
9,"COc1ccc(-c2cc(Nc3ccc(Oc4ccnc(C(N)=O)c4)cc3)nc(N)n2)cn1 [Example 230, 4-(4-{[2-amino-6-(6-methoxypyridin-3-yl)pyrimidin-4-yl]amino}phenoxy) pyridine-2-carboxamide]",500 to 2000 nM
10,"CSc1ccc(-c2cc(Nc3ccc(Oc4ccnc(C#N)c4)cc3)nc(N)n2)cc1 [Example 231, 4-[4-({2-amino-6-[4-(methylthio)phenyl]pyrimidin-4-yl}amino)phenoxy]pyridine-2-carbonitrile]",500 to 2000 nM

# Same assay, conditions: Homo sapiens, HCT-116, 72 h compound exposure, greater than 2 μM
row,Structure (SMILES),IC50
1,"Nc1nc(Nc2ccc(Oc3ccnc(C(F)(F)F)c3)cc2)cc(-c2cccc(OC(F)(F)F)c2)n1 [Example 216, 6-[3-(trifluoromethoxy)phenyl]-N4*- (4-{[2-(trifluoromethyl)pyridin-4-yl]oxy}phenyl)pyrimidine-2,4-diamine]",> 2000 nM
2,"Nc1nc(Nc2ccc(Oc3ccnc(C(F)(F)F)c3)cc2)cc(-c2ccc(OC(F)(F)F)cc2)n1 [Example 217, 6-[4-(trifluoromethoxy)phenyl]-N4*- (4-{[2-(trifluoromethyl)pyridin-4-yl]oxy}phenyl)pyrimidine-2,4-diamine]",> 2000 nM
3,"N#Cc1cc(Oc2ccc(Nc3cc(-c4ccc(-c5ccccc5)c(F)c4)nc(N)n3)cc2)ccn1 [Example 221, 4-(4-{[2-amino-6-(2-fluorobiphenyl-4-yl)pyrimidin-4-yl]amino}phenoxy) pyridine-2-carbonitrile]",> 2000 nM
4,"COc1ccc(-c2cc(Nc3ccc(Oc4ccnc(C#N)c4)cc3)nc(N)n2)cc1OC [Example 224, 4-(4-{[2-amino-6-(3,4-dimethoxyphenyl)pyrimidin-4-yl]amino}phenoxy)pyridine-2-carbonitrile]",> 2000 nM
5,"COc1ccc(-c2cc(Nc3ccc(Oc4ccnc(C#N)c4)cc3)nc(N)n2)cc1 [Example 225, 4-(4-{[2-amino-6-(4-methoxyphenyl)pyrimidin-4-yl]amino}phenoxy) pyridine-2-carbonitrile 4-(4-{[6-amino-2-(4-methoxyphenyl)pyrimidin-4-yl]amino}phenoxy) pyridine-2-carbonitrile]",> 2000 nM

# Same assay, conditions: Homo sapiens, HCT-116, 72 h compound exposure, less than or equal to 500 nM
row,Structure (SMILES),IC50
1,"CN(C)c1ccc(-c2cc(Nc3ccc(Oc4ccnc(C(F)(F)F)c4)cc3)nc(N)n2)cc1 [Example 199, 6-[4-(dimethylamino)phenyl]-N4*-(4-{[2-(trifluoromethyl)pyridin-4-yl]oxy}phenyl)pyrimidine-2,4-diamine]",≤ 500 nM
2,"CCc1cccc(-c2cc(Nc3ccc(Oc4ccnc(C(F)(F)F)c4)cc3)nc(N)n2)c1 [Example 200, 6-(3-ethylphenyl)-N4*-(4-{[2-(trifluoromethyl)pyridin-4-yl]oxy}phenyl)pyrimidine-2,4-diamine]",≤ 500 nM
3,"Cc1ccccc1-c1cc(Nc2ccc(Oc3ccnc(C(F)(F)F)c3)cc2)nc(N)n1 [Example 202, 6-(2-methylphenyl)-N4*-(4-{[2-(trifluoromethyl)pyridin-4-yl]oxy}phenyl)pyrimidine-2,4-diamine]",≤ 500 nM
4,"Nc1nc(Nc2ccc(Oc3ccnc(C(F)(F)F)c3)cc2)cc(-c2ccc(F)cc2F)n1 [Example 204, 6-(2,4-difluorophenyl)-N4*-(4-{[2-(trifluoromethyl)pyridin-4-yl]oxy}phenyl)pyrimidine-2,4-diamine]",≤ 500 nM
5,"Nc1nc(Nc2ccc(Oc3ccnc(C(F)(F)F)c3)cc2)cc(-c2cccc(CO)c2)n1 [Example 205, (3-{2-amino-6-[(4-{[2-(trifluoromethyl)pyridin-4-yl]oxy}phenyl)amino]pyrimidin-4-yl}phenyl) methanol]",≤ 500 nM
6,"COc1cccc(-c2cc(Nc3ccc(Oc4ccnc(C(F)(F)F)c4)cc3)nc(N)n2)c1 [Example 206, 6-(3-methoxyphenyl)-N4*-(4-{[2-(trifluoromethyl)pyridin-4-yl]oxy}phenyl)pyrimidine-2,4-diamine]",≤ 500 nM
7,"Cc1ccc(-c2cc(Nc3ccc(Oc4ccnc(C(F)(F)F)c4)cc3)nc(N)n2)cc1N [Example 208, 6-(3-amino-4-methylphenyl)-N4*-(4-{[2-(trifluoromethyl)pyridin-4-yl]oxy}phenyl)pyrimidine-2,4-diamine]",≤ 500 nM
8,"CC(C)c1ccc(-c2cc(Nc3ccc(Oc4ccnc(C(F)(F)F)c4)cc3)nc(N)n2)cc1 [Example 209, 6-(4-isopropylphenyl)-N4*-(4-{[2-(trifluoromethyl)pyridin-4-yl]oxy}phenyl)pyrimidine-2,4-diamine]",≤ 500 nM
9,"N#CCc1ccc(-c2cc(Nc3ccc(Oc4ccnc(C(F)(F)F)c4)cc3)nc(N)n2)cc1 [Example 210, (4-{2-amino-6-[(4-{[2-(trifluoromethyl)pyridin-4-yl]oxy}phenyl)amino]pyrimidin-4-yl}phenyl) acetonitrile]",≤ 500 nM
10,"Cc1ccc(-c2cc(Nc3ccc(Oc4ccnc(C(F)(F)F)c4)cc3)nc(N)n2)cc1 [Example 211, 6-(4-methylphenyl)-N4*-(4-{[2-(trifluoromethyl)pyridin-4-yl]oxy}phenyl)pyrimidine-2,4-diamine]",≤ 500 nM
11,"Cc1cccc(-c2cc(Nc3ccc(Oc4ccnc(C(F)(F)F)c4)cc3)nc(N)n2)c1 [Example 212, 6-(3-methylphenyl)-N4*-(4-{[2-(trifluoromethyl)pyridin-4-yl]oxy}phenyl)pyrimidine-2,4-diamine]",≤ 500 nM
12,"Nc1nc(Nc2ccc(Oc3ccnc(C(F)(F)F)c3)cc2)cc(-c2cccnc2)n1 [Example 213, 6-pyridin-3-yl-N4*-(4-{[2-(trifluoromethyl)pyridin-4-yl]oxy}phenyl)pyrimidine-2,4-diamine]",≤ 500 nM
13,"Nc1nc(Nc2ccc(Oc3ccnc(C(F)(F)F)c3)cc2)cc(-c2ccsc2)n1 [Example 214, 6-(3-thienyl)-N4*-(4-{[2-(trifluoromethyl)pyridin-4-yl]oxy}phenyl)pyrimidine-2,4-diamine]",≤ 500 nM
14,"COc1ccc(OC)c(-c2cc(Nc3ccc(Oc4ccnc(C(F)(F)F)c4)cc3)nc(N)n2)c1 [Example 215, 6-(2,5-dimethoxyphenyl)-N4*-(4-{[2-(trifluoromethyl)pyridin-4-yl]oxy}phenyl)pyrimidine-2,4-diamine]",≤ 500 nM
15,"Nc1nc(Nc2ccc(Oc3ccnc(C(F)(F)F)c3)cc2)cc(-c2cc(F)cc(F)c2)n1 [Example 218, 6-(3,5-difluorophenyl)-N4*-(4-{[2-(trifluoromethyl)pyridin-4-yl]oxy}phenyl)pyrimidine-2,4-diamine]",≤ 500 nM
16,"N#Cc1cc(Oc2ccc(Nc3cc(-c4ccc[nH]4)nc(N)n3)cc2)ccn1 [Example 219, 4-(4-{[2-amino-6-(1H-pyrrol-2-yl)pyrimidin-4-yl]amino}phenoxy) pyridine-2-carbonitrile hydrochloride]",≤ 500 nM
17,"COc1ccc(-c2cc(Nc3ccc(Oc4ccnc(C#N)c4)cc3)nc(N)n2)cn1 [Example 223, 4-(4-{[2-amino-6-(6-methoxypyridin-3-yl)pyrimidin-4-yl]amino}phenoxy) pyridine-2-carbonitrile]",≤ 500 nM
18,"N#Cc1cc(Oc2ccc(Nc3cc(-c4ccc(O)cc4)nc(N)n3)cc2)ccn1 [Example 227, 4-(4-{[2-amino-6-(4-hydroxyphenyl)pyrimidin-4-yl]amino}phenoxy) pyridine-2-carbonitrile 4-(4-{[6-amino-2-(4-hydroxyphenyl)pyrimidin-4-yl]amino}phenoxy) pyridine-2-carbonitrile]",≤ 500 nM
19,"N#Cc1cc(Oc2ccc(Nc3cc(-c4ccoc4)nc(N)n3)cc2)ccn1 [Example 228, 4-(4-{[2-amino-6-(3-furyl)pyrimidin-4-yl]amino}phenoxy)pyridine-2-carbonitrile 4-(4-{[6-amino-2-(3-furyl)pyrimidin-4-yl]amino}phenoxy) pyridine-2-carbonitrile]",≤ 500 nM
20,"N#Cc1cc(Oc2ccc(Nc3cc(-c4ccc(N)cc4)nc(N)n3)cc2)ccn1 [Example 229, 4-(4-{[2-amino-6-(4-aminophenyl)pyrimidin-4-yl]amino}phenoxy) pyridine-2-carbonitrile 4-(4-{[6-amino-2-(4-aminophenyl)pyrimidin-4-yl]amino}phenoxy)pyridine-2-carbonitrile]",≤ 500 nM
